Laboratory results from US20250064729A1, “METHODS AND FORMULATIONS FOR IMPROVING THE PHARMACOKINETIC PROPERTIES OF NUTRACEUTICAL COMPOUNDS” (UNIVERSITY OF SOUTH CAROLINA, priority 2023, published 2025).
In brackets after ≈: the same amount, converted by molar mass.

Experiment: Solubility assessment under saturation conditions in simulated gastrointestinal media
Settings: thermodynamic from solid
Procedure: Biological media (Biorelevant.com, London, UK) were prepared according to the manufacturer's instructions. […] The resulting suspensions were left for 1 h at room temperature under constant magnetic stirring. A 200-μl aliquot of each suspension was taken into an Eppendorf tube and centrifuged at top speed, and 100 μl supernatant was taken for UV spectrometer detection at 434 nm for emodin and 371 nm for quercetin. The concentration was calculated based on standard curves established using pure emodin or quercetin completely dissolved in methanol.

| solubility at 1 h (FaSSGF (fasted-state simulated gastric fluid), pH 1.6, fassgf or other biorelevant) [µg/mL] | solubility at 1 h (FaSSIF (fasted-state simulated intestinal fluid), pH 6.5, fassif) [µg/mL] | solubility at 1 h (FeSSIF (fed-state simulated intestinal fluid), pH 5, fessif) [µg/mL] | Structure (SMILES) | solubility at 1 h (pH 1.6, fassgf or other biorelevant) [µg/mL] | solubility at 1 h (pH 6.5, fassif) [µg/mL] |
| --- | --- | --- | --- | --- | --- |
| – | – | – | Cc1cc(O)c2c(c1)C(=O)c1cc(O)cc(O)c1C2=O [Emodin, 1,3,8-trihydroxy-6-methylanthraquinone] | 7.1 (≈ 26.3 µM) | 27.2 (≈ 101 µM) |
| 20.8 (≈ 68.8 µM) | 43.4 (≈ 144 µM) | 146 (≈ 481 µM) | O=c1c(O)c(-c2ccc(O)c(O)c2)oc2cc(O)cc(O)c12 [Quercetin, 3,3′,4′,5,7-pentahydroxylflavone] | – | – |
